Results as given in PMC11839646, “HPK1 kinase inhibitor: a sufficient approach to target HPK1 to modulate T cell activation in cancer immunotherapy compared with degraders” (Frontiers in Immunology, 2025).
pEC50, pIC50: −log10 of the molar value. Read-outs that look alike come from different tables or passages of the source.

How the values were obtained:
[1] = test system: phosphorylation of SLP76-S376; assay: TCR-induced p-SLP76-S376 in Jurkat cells after OKT3 stimulation (flow cytometry); format: cell-based; details: Homo sapiens; Jurkat cells pretreated 24 h, OKT3 stimulation 30 min
Procedure: (§1) Jurkat cells (ATCC, Manassas, VA, USA) and human peripheral blood mononuclear cells (PBMCs) were cultured in RPMI-1640 medium (Thermo Fisher Scientific, Waltham, MA, USA) supplemented with 10% heat-inactivated fetal bovine serum (Thermo Fisher) and 1% penicillin–streptomycin (Thermo Fisher Scientific) at 37°C in a humidified incubator with 5% CO2. The density of Jurkat cells was adjusted to 1 × 10^6/mL 24 h before conducting the experiment. Cryopreserved human PBMCs were purchased from Oribiotech (Shanghai, China); they were freshly thawed and cultured overnight prior to performing the experiment.
(§2) Jurkat cells or human PBMCs were pretreated in triplicates or quadruplicates with dimethyl sulfoxide or compounds for 24 h. For p-SLP76-S376 analysis, the cells were activated for 30 min with OKT3. For granzyme B and perforin analysis of human PBMCs, ultra-high binding 96-well plates (Corning Inc., Corning, NY, USA) were precoated with OKT3 overnight at 4°C. Human PBMCs were pretreated in quadruplicates with dimethyl sulfoxide or compounds for 24 h. The cells were then activated for another 24 h with precoated OKT3, followed by 2 h treatment with Protein Transport Inhibitor Cocktail (Thermo Fisher). The stimulated cells were fixed with BD Phosflow™ Lyse/Fix buffer (BD Biosciences, San Diego, CA, USA), washed and permeabilized with BD Perm Buffer III (BD Biosciences), and subsequently stained with a fluorescence-conjugated antibody against HPK1 (E1C3L; Cell Signaling Technology), p-SLP76-S376 (E3G9U; Cell Signaling Technology), granzyme B (GB11, BioLegend, San Diego, CA, USA), perforin (dG9, BioLegend) and anti-human CD3 (SK7, BioLegend), CD4 (SK3, BioLegend) and CD8 (SK1, BioLegend) for primary T cells. This was followed by data acquisition and analysis with the BD FACSymphony™ A1 Cell Analyzer (BD Biosciences).

Jurkat cells = assay: IL-2 production by Jurkat cells stimulated with immobilized OKT3; format: cell-based, human; details: Jurkat cells pretreated 24 h, immobilized OKT3 24 h
Procedure: as §1
Jurkat cells were seeded in triplicates into those plates for stimulation and incubated for 24 h. Alternatively, Jurkat cells were pretreated with various concentrations of the aforementioned compounds for 24 h prior to stimulation with aforementioned immobilized OKT3. For cytokine analysis of human PBMCs, the cells were seeded into U-bottomed 96-well plates (Corning Inc.) and treated with the compounds for 24 h prior to stimulation. Next, the cells were stimulated by co-culture with HEK293/OS8/PD-L1 cells in the U-bottomed 96-well plates for another 24 h. HEK293/OS8/PD-L1 is a HEK293 cell line edited to stably co-express human PD-L1 (programmed death ligand 1) and single chain fragment variable (scFv) of OKT3 fused with transmembrane and cytoplasmic domains of murine CD8α, as previously described ([21]). Interleukin 2 (IL-2) and interferon-gamma (IFN-γ) in the supernatant were detected using the HTRF Human IL-2 Detection Kit and AlphaLISA Biotin-Free Human IFNγ Detection Kit (both obtained from Revvity, Waltham, MA, USA) according to the instructions provided by the manufacturer. Data were acquired with PHERAstar FSX (BMG LABTECH Inc., Cary, NC, USA).

[2] = test system: phosphorylation of SLP76-S376; assay: TCR-induced p-SLP76-S376 in CD4+ and CD8+ T cells of human PBMCs (flow cytometry); format: cell-based; details: for TCR-induced phosphorylation on SLP76-S376: 24 h pretreatment
Procedure: as §1, §2

human PBMCs = assay: IL-2 and IFN-γ production by human PBMCs co-cultured with HEK293/OS8/PD-L1; format: cell-based; details: human PBMCs pretreated 24 h, co-culture with HEK293/OS8/PD-L1 24 h
Procedure: as §1
Jurkat cells were seeded in triplicates into those plates for stimulation and incubated for 24 h. Alternatively, Jurkat cells were pretreated with various concentrations of the aforementioned compounds for 24 h prior to stimulation with aforementioned immobilized OKT3. For cytokine analysis of human PBMCs, the cells were seeded into U-bottomed 96-well plates (Corning Inc.) and treated with the compounds for 24 h prior to stimulation. […] Interleukin 2 (IL-2) and interferon-gamma (IFN-γ) in the supernatant were detected using the HTRF Human IL-2 Detection Kit and AlphaLISA Biotin-Free Human IFNγ Detection Kit (both obtained from Revvity, Waltham, MA, USA) according to the instructions provided by the manufacturer. […]

[3] = test system: CD8+ T cells of human PBMCs; assay: Granzyme B levels in CD8+ T cells of human PBMCs after OKT3 stimulation; format: cell-based; details: human PBMCs pretreated 24 h, OKT3 stimulation 24 h
Procedure: as §2

HepG2 cells = assay: Real-time cell mediated cytotoxicity assay (xCELLigence RTCA), PBMC killing of HepG2; format: cell-based; details: PBMC:HepG2 5:1, compared to DMSO-pretreated PBMCs, up to 6 days post TCR stimulation
Procedure: For in vitro HepG2 cell killing, human PBMCs were pretreated in quadruplicates with dimethyl sulfoxide or compounds for 24 h, followed by stimulation by OKT3 for another 24 h. HepG2 cells were seeded at 2 × 10^4/well in a RTCA 96-well-E plate (Agilent Technologies, Sana Clara, CA, USA). 24 h after HepG2 seeding, the stimulated PBMCs were added at a PBMC: HepG2 cells ratio of 5:1. Target cell death was monitored using xCELLigence RTCA MP instrument (Agilent Technologies).

HPK1 [4] = target: T1, HPK1 (Homo sapiens, UniProt Q92918); assay: Western blotting of TCR-induced signaling in HKO-EV, HKO-HPK1.WT and HKO-HPK1.K46E Jurkat cells; format: cell-based; design: expressed in transfected cells; host or cells: HPK1-knockout Jurkat single clone (EdiGene), lentiviral transduction, blasticidin-selected pool; details: compound pretreatment, OKT3 stimulation; for SLP76-S376 phosphorylation (Western blot): HKO-HPK1.WT Jurkat cells; for ERK1/2 phosphorylation (Western blot): HKO-HPK1.WT vs HKO-EV and HKO-HPK1.K46E Jurkat cells
T1 sequence (Q92918 whole entry): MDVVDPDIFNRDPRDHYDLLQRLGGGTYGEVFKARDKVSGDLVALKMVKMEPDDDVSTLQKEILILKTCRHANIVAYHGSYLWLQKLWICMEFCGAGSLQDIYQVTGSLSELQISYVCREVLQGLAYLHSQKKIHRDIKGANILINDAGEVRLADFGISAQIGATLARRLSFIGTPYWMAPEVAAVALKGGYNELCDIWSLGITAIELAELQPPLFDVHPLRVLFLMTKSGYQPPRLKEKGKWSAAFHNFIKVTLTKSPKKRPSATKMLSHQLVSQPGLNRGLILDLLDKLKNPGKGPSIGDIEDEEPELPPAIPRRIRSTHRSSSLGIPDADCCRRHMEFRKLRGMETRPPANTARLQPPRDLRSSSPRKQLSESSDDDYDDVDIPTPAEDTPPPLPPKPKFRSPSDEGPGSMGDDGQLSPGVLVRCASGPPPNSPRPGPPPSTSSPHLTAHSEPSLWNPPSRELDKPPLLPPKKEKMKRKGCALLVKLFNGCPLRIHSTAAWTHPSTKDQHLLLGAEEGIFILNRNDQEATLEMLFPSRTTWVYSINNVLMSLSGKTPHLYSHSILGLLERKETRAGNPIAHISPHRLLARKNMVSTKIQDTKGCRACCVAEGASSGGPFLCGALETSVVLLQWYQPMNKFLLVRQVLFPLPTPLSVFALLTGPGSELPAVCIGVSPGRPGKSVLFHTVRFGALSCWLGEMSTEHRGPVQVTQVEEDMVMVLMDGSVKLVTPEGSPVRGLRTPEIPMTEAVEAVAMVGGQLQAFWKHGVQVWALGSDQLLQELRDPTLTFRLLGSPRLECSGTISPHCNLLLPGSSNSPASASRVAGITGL
From the text: The Jurkat line with a homozygous knockout of HPK1 (HKO) single clone was purchased from EdiGene (Beijing, China). HKO-EV (HKO empty vector control), HKO-HPK1.WT (HKO overexpressing wildtype HPK1), and HKO-HPK1.K46E (HKO overexpressing kinase-dead HPK1) Jurkat pools were generated by lenti-vector transduction. In brief, the coding sequences of different HPK1 mutants were inserted into a FG12-BSD plasmid with the human phosphoglycerate kinase (hPGK) promoter (GenScript, Nanjing, China). Thereafter, 293T cells (ATCC) were transfected with those plasmids together with lentivirus packing plasmids pMD2.G and psPAX2. The culture medium containing virus was collected and used to infect HKO cells. Blasticidin 10 µg/mL (InvivoGen, San Diego, CA, USA) was used for the selection of infected cells. HPK1-knockin Jurkat cells (HPK1 K46*) and kinase-inactivated HPK1-knockin Jurkat cells (HPK1 K46E) were produced by introducing a Lys46Ter mutation or a Lys46Glu mutation to the HPK1 gene, respectively.
(§3) Jurkat cells were activated by anti-human CD3 (OKT3; 10 μg/mL, Thermo Fisher Scientific), while human peripheral blood cells were activated through TCR crosslinking by biotinylated OKT3 and streptavidin (7.5 μg/mL; Thermo Fisher Scientific). The cells were lysed at various time points post stimulation, and the lysate was denatured. The obtained samples were subjected to electrophoresis, and the separated proteins were electro-transferred onto a nitrocellulose membrane. Thereafter, the membranes were incubated with antibodies against HPK1 (E1C3L), phosphorylated SLP76-S376 (p-SLP76-S376; D7S1K), SLP76 (D1R1A), p-ERK1/2-T202/Y204 (D13.14.4E), p-PLCγ1-Y783 (polyclonal), PLCγ1 (D9H10), and glyceraldehyde-3-phosphate dehydrogenase (GAPDH; D4C6R). All antibodies used for immunoblotting were purchased from Cell Signaling Technology (Danvers, MA, USA).

HPK1 [5] = target: T1, HPK1; assay: HPK1 degradation in Jurkat cells (intracellular staining, flow cytometry); format: cell-based; design: Compound 2 degraded HPK1 in CD4^+ and CD8^+ T cells in a concentration-dependent manner; host or cells: human PBMCs (CD4+ and CD8+ T cells) from healthy donors; details: for HPK1 degradation at high concentrations: 24 h treatment, ≥1,000 nM
Procedure: as §1, §2

HPK1 [6] = target: T1, HPK1; assay: HPK1 degradation in CD4+ and CD8+ T cells of human PBMCs (flow cytometry); format: cell-based; design: Compound 2 degraded HPK1 in CD4^+ and CD8^+ T cells in a concentration-dependent manner; host or cells: human PBMCs (CD4+ and CD8+ T cells) from healthy donors; details: for DC50: 24 h treatment, read-out: HPK1 degradation EC50; for HPK1 degradation at 1,000 nM / HPK1 degradation at high concentrations: CD4+ and CD8+ T cells in human PBMCs; for HPK1 degradation at 1,000 nM: 24 h, 1,000 nM; for HPK1 degradation at high concentrations: 24 h, ≥3,000 nM
Procedure: as §1, §2

HPK1 [7] = target: T1, HPK1; assay: Western blotting of TCR-induced signaling in human PBMCs after TCR crosslinking; format: cell-based; design: Compound 2 degraded HPK1 in CD4^+ and CD8^+ T cells in a concentration-dependent manner; host or cells: human PBMCs (CD4+ and CD8+ T cells) from healthy donors
Procedure: as §1, §3

HPK1 [8] = test system: HPK1; design: method as in PMID 32860752, PMID 39446986, PMID 39568237; details: preclinical; cited from earlier work
[9] = 300 nM and 1,000 nM pretreatment

SMILES: Cc1cc(-c2cnc3[nH]cc(-c4ccc(C(=O)N(C)C)cc4)c3c2)cc2c1CN(CCC(=O)N1CCN(c3ccc(N4CCC(=O)NC4=O)cc3)CC1)CC2 [Compound 2, 4-(5-(2-(3-(4-(4-(2,4-dioxotetrahydropyrimidin-1(2H)-yl)phenyl)piperazin-1-yl)-3-oxopropyl)-8-methyl-1,2,3,4-tetrahydroisoquinolin-6-yl)-1H-pyrrolo[2,3-b]pyridin-3-yl)-N,N-dimethylbenzamide]
- pIC50 [1]: ~7.70
- pEC50 (Jurkat cells; Homo sapiens): ~6.70
- IC50 for SLP76-S376 phosphorylation relative to the other two compounds [2]: lower in both populations
- TCR-induced phosphorylation on SLP76-S376 [2]: effectively reduced
- Maximal enhancement of TCR-induced IL-2 and IFN-γ production (human PBMCs): not stronger than that after treatment with Compound 1
- Granzyme B levels in CD8+ T cells [3]: enhanced granzyme B levels
- Cytotoxicity of pretreated PBMCs against HepG2 cells (HepG2 cells): did not exhibited stronger cytotoxicity against HepG2 cells
- SLP76-S376 phosphorylation (Western blot) (HPK1 [4]): attenuated SLP76-S376 phosphorylation
- ERK1/2 phosphorylation (Western blot) (HPK1 [4]): enhanced ERK1/2 phosphorylation only in HKO-HPK1.WT Jurkat cells
- HPK1 degradation, time course (HPK1 [5]; 1 μM, within 24 h): effectively degraded HPK1
- DC50 (HPK1 [6]; CD4+ T cells in human PBMCs): 11.5 nM
- DC50 (HPK1 [6]; CD8+ T cells in human PBMCs): 26 nM
- HPK1 levels (Western blot) (HPK1 [7]; 300 nM pretreatment): almost complete degradation of HPK1
- SLP76-S376 phosphorylation (Western blot) (HPK1 [7]; 300 nM pretreatment): attenuation of SLP76-S376 phosphorylation

SMILES: Cc1cc(-c2cnc3[nH]cc(-c4ccc(C(=O)N(C)C)cc4)c3c2)cc2c1CN(CCC(=O)N1CCN(c3ccc(N4CCC(=O)N(C)C4=O)cc3)CC1)CC2 [Compound 3, N,N-dimethyl-4-(5-(8-methyl-2-(3-(4-(4-(3-methyl-2,4-dioxotetrahydropyrimidin-1(2H)-yl)phenyl)piperazin-1-yl)-3-oxopropyl)-1,2,3,4-tetrahydroisoquinolin-6-yl)-1H-pyrrolo[2,3-b]pyridin-3-yl)benzamide]
- pIC50 [1]: 6.92
- IL-2 production EC50 relative to Compound 2 (Jurkat cells): higher
- IL-2 production, maximal level (Jurkat cells): comparable with that induced by Compound 2
- TCR-induced phosphorylation on SLP76-S376 [2]: effectively reduced
- Cytotoxicity of pretreated PBMCs against HepG2 cells (HepG2 cells): enhanced HepG2 killing ability of PBMCs, but to a less extent than Compound 1 or Compound 2
- SLP76-S376 phosphorylation (Western blot) (HPK1 [4]): attenuated SLP76-S376 phosphorylation
- ERK1/2 phosphorylation (Western blot) (HPK1 [4]): enhanced ERK1/2 phosphorylation only in HKO-HPK1.WT Jurkat cells
- HPK1 degradation at high concentrations (HPK1 [5]): resulted in the degradation of HPK1
- HPK1 degradation at 1,000 nM (HPK1 [6]): did not significantly degrade HPK1
- HPK1 degradation at high concentrations (HPK1 [6]): limited HPK1 degradation
- HPK1 levels (Western blot) (HPK1 [7]; [9]): without significantly affecting HPK1 levels
- SLP76-S376 phosphorylation (Western blot) (HPK1 [7]; [9]): reduced or almost completely attenuated SLP76-S376 phosphorylation

SMILES: Cc1cc(-c2cnc3[nH]cc(-c4ccc(C(=O)N(C)C)cc4)c3c2)cc2c1CN(C)CC2 [Compound 1, 4-(5-(2,8-dimethyl-1,2,3,4-tetrahydroisoquinolin-6-yl)-1H-pyrrolo[2,3-b]pyridin-3-yl)-N,N-dimethylbenzamide]
- pIC50 [1]: 6.92
- IL-2 production EC50 relative to Compound 2 (Jurkat cells): higher
- IL-2 production, maximal level (Jurkat cells): comparable with that induced by Compound 2
- TCR-induced phosphorylation on SLP76-S376 [2]: effectively reduced
- Granzyme B levels in CD8+ T cells [3]: enhanced granzyme B levels
- SLP76-S376 phosphorylation (Western blot) (HPK1 [4]): attenuated SLP76-S376 phosphorylation
- ERK1/2 phosphorylation (Western blot) (HPK1 [4]): enhanced ERK1/2 phosphorylation only in HKO-HPK1.WT Jurkat cells
- HPK1 degradation at high concentrations (HPK1 [5]): resulted in the degradation of HPK1
- HPK1 degradation at 1,000 nM (HPK1 [6]): did not significantly degrade HPK1
- HPK1 degradation at high concentrations (HPK1 [6]): limited HPK1 degradation
- HPK1 levels (Western blot) (HPK1 [7]; [9]): without significantly affecting HPK1 levels
- SLP76-S376 phosphorylation (Western blot) (HPK1 [7]; [9]): reduced or almost completely attenuated SLP76-S376 phosphorylation

SMILES: CC(C)(O)C#Cc1cccc(COc2cc(-c3cnc(C4CCN(C(=O)CCOCCOCCOCCOCCOc5cccc6c5C(=O)N(C5CCC(=O)NC5=O)C6=O)CC4)s3)cnc2N)c1 (stereo not drawn) [SS47]
- Tumor suppression compared to the corresponding warhead (HPK1 [8]): greater tumor suppression
